The test system of test [1] is B. pertussis isolates. Particulars: cited from earlier work.
The test system of test [2] is Escherchia coli. Particulars: 40 μg/ml; cited from earlier work.
Test [3] has as its system B. pertussis. Kind of test: In vitro bactericidal activity against B. pertussis in SS medium, viable counts (CFU) on BG agar. Format: cell-based, B. pertussis strain Tohama I. The method, then: The B. pertussis strain used in these experiments was Tohama I. Bacterial suspensions were stored at −70° C. in casamino acid plus 10% glycerol. Organisms were initially grown on the surface of Bordet-Gengou (BG) agar containing 15% (vol/vol) defibrinated sheep blood and 40 μg/ml of Cephalexin at 37° C. for 48 hrs. The bacterial cells were harvested and washed in phosphate-buffered saline (PBS, pH 7.2) by centrifugation at 2500 g for 10 min. The pellets were resuspended in saline and adjusted to a specified bacterial titer by determining the optical density at 600 nm using a spectrophotometer; The corresponding viable counts of these suspensions were measured by plating out serial dilutions of the bacterial suspension onto BG-agar and incubating at 37° C. for 4-5 days.
To examine the bactericidal effect of defensin against B. pertussis, 10 μl of bacterial suspension (OD600 nm of 0.2) was added to 200 μl of Stainer and Scholte (SS) broth medium with or without chemically synthesized defensin at different concentrations in a 96 well plate and incubated at 37° C. for up to 30 hours. At the end of each incubation period (6 hrs, 18 hrs, 24 hrs, 30 hrs), the culture medium was immediately removed for quantification of viable bacteria. The culture medium with or without defensin was plated onto BG agar plates and incubated at 37° C. for up to 4 days after which time the number of colonies were counted. The number of surviving bacteria was estimated by colony-forming units (CFU). The results were confirmed by three independent experiments compared with results from control bacterial culture (no peptide).
20, 40 and 80 μg of pBD-1 was added to bacterial culture and incubated at 37° C. Aliquots were removed at 6, 18 and 30 hr post incubation and incubated for 4 days on BG plates at 37° C.
(§1) Bactericidal activity of bronchoalveolar lavage (BAL) fluid obtained from non-infected piglets was analyzed against B. pertussis in vitro. Non-infected piglets, either 4-5 weeks old or newborn piglets (6 hours old, colostrum-deprived or colostrum-fed), were euthanized and BALs were collected in Stainer-Scholte (SS) medium. The BAL fluid was obtained by filling the lungs with 10 ml of SS medium and withdrawing as much fluid as possible (this procedure was performed once). Alveolar macrophages and other cells were removed by centrifugation at 500 g for 10 minutes. BALs (290 μl) were co-cultured in microtiter plates with 10 μl bacterial suspension containing 5-7×10^6 CFU of B. pertussis at 37° C. Supernatants were plated onto BG agar plates at different time points to evaluate the number of viable bacteria. The sensitivity of B. pertussis to synthetically derived pBD-1 and human beta-defensin 2 (hBD-2) was assayed by co-culturing appropriate concentrations of pBD-1 or hBD-2 in SS-medium (280 μl) with 5-7×10^6 CFU (10 μl) bacteria. Plates were incubated at 37° C. for 2, 6, 18 and 24 hours. The same procedures were followed to investigate the inhibitory effects of BAL, pBD-1 and hBD-2 against B. bronchiseptica in vitro.

Test [4] concerns B. pertussis. Kind of test: Transmission electron microscopy of B. pertussis after pBD-1 treatment. Format: cell-based. To be noted: 20 and 40 μg/ml; 60 minutes at 37° C. The protocol:
(§2) To determine the potential mechanism of action of pBD-1, transmission electron microscopy (TEM) was employed to evaluate the effect of pBD-1 on the bacterial membrane of B. pertussis and B. bronchiseptica following treatment with pBD-1. pBD-1 was added at a final concentration of 20 μg/ml or 40 μg/ml to 5-9×10^9 CFU bacteria and incubated for 60 minutes at 37° C. Bacteria were washed with PBS, fixed with an equal volume of 5% glutaraldehyde in 0.1 M sodium cacodylate buffer (pH 7.4), and centrifuged at 5000 g for 5 minutes. Cells were resuspended in 1% agarose and pelleted. The bacterial pellets were stored in the fixative (2.5% glutaraldehyde) at 4° C. for 2 hours. The samples were dehydrated and en bloc stained with uranyl acetate in a series of ethanol concentrations and then embedded in Epon/Araldite. Thin sections were cut using an ultramicrotome with a diamond knife, mounted on specimens grids and stained with uranyl acetate and lead citrate before being examined on a transmission electron microscope (Philips 410LS) operating at 80 kV and at magnification ranging from 24000-55000×.

Test [5] has as its system Actinobacillus pleuropneumoniae. Kind of test: In vitro inhibitory activity against Actinobacillus pleuropneumoniae. Format: cell-based. Particulars: FIG. 6A. The protocol: (§3) E. coli, Actinobacillus pleuropneumoniae and B. bronchiseptica were grown on agar plates using routine procedures. The bacteria were washed off the plates, washed in saline and subsequently resuspended in media. They were co-incubated with pBD-1 in varying doses and incubated for various time periods (6-48 hours). The bacteria were quantified by plating the suspension onto agar plates.
(§4) The inhibitory activity of pBD-1 on the Gram-negative bacteria Actinobacillus pleuropneumoniae, Bordetella bronchiseptica, Streptococcus suis and E. coli was also examined. FIGS. 6A-6B show the results on A. pleuropneumoniae, S. suis, B. bronchiseptica and B. pertussis. The results for E. coli are not shown.

Test [6] deals with Salmonella typhimurium. Particulars: 40 μg/ml; cited from earlier work.
Test [7] has as its system B. bronchiseptica. Kind of test: Transmission electron microscopy of B. bronchiseptica after pBD-1 treatment. Particulars: 80 μg/ml. It counts as cell-based. The protocol: as §2, with “bronchiseptica following treatment with pBD-1. pBD-1 was added at a final concentration of 20 μg/ml or 40 μg/ml to 5-9×10^9 CFU bacteria” left out
The test system of test [8] is B. pertussis. Put plainly: In vivo antimicrobial activity: pBD-1 delivered into lungs of newborn piglets, challenge with B. pertussis. The protocol:
Pregnant Landrace sows were purchased from the Saskatoon Prairie Swine Centre, University of Saskatchewan. Sows were induced to farrow by intramuscular (i.m.) injection of prostaglandin (Planate) (Schering, Quebec, Canada) at day 113 of gestation. Piglets were born at day 114-115 of gestation. Nursing piglets were kept within the same room, but in separated pens and monitored very closely. The piglets were challenged at 3-5 days of age. All experiments were conducted in accordance with the ethical guidelines of the University of Saskatchewan and the Canadian Council for Animal Care (CCAC).
Newborn piglets were anaesthetized with isoflurane and intubated using a laryngoscope. Infection was initiated by delivering 5×10^9 CFU of B. pertussis strain Tohama I intrapulmonarily (craniodorsal of the bifurcation) through a MICRO-RENATHANE tube (0.95) (Braintree Scientific Inc., Braintree, Mass., USA), which was inserted through an endotracheal tube (3 mm) (Jorgensen Laboratories Inc. Loveland, Colo., USA). The bottom-end of the MICRO-RENATHANE tube was sealed and minute holes were made for the equal distribution of bacteria. Piglets were monitored twice daily for clinical symptoms including fever and respiratory symptoms such as nasal discharge, non paroxysmal cough and breathing difficulties. Piglets were euthanized by i.p. injection of 5 ml of Euthanyl (Sodium barbiturate; Bimeda-MTC, Ont, Canada) at different time points over a 10 day period post challenge. The thoracic and the abdominal cavities and the lungs were examined for any lesions and abnormalities such as pleuritis or local collections of blood and fluids in the thorax were noted.
The antimicrobial activity of pBD-1 was tested in vivo by delivery of pBD-1 into the lungs of newborn piglets prior to challenge with B. pertussis. Pregnant sows, Landrace, were purchased from Saskatoon Prairie Swine Centre, University of Saskatchewan. Sows were farrowed out by i.m. injection of prostaglandin (Planate). Three to four day old colostrum-fed piglets were anaesthetized with isoflurane. 500 μg of pBD-1 dissolved in 1.5 ml PBS was delivered to the lung using a tube placed through the trachea in front of the bifurcation which marks the beginning of the lung (craniodorsal of bifurcation). A volume of 1.5 ml was delivered. Following the delivery of the pBD-1, all piglets were challenged with 5×10^9 cfu bacteria (n=10) by the same procedure. Control animals received saline instead of pBD-1 and were subsequently challenged. Piglets were kept with their sows within the same room in separated pens. Piglets were monitored twice a day.
In addition, the number of bacteria in BAL fluid and lung lesions was examined over a 10 day period. The BAL fluid was obtained by filling the lungs with 15 ml of SS-medium and withdrawing as much fluid as possible. To quantify the presence of B. pertussis in the BAL, fluid samples were centrifuged to remove debris and host cells; supernatant and dilutions thereof were plated onto BG plates and incubated at 37° C. for up to a week. To determine the number of bacteria within tissues, lesions were excised, weighed, homogenized and plated onto BG agar plates.

For test [9], the system named is Listeria monocytogenes. To be noted: 40 μg/ml; cited from earlier work.
Test [10] concerns Streptococcus suis. Kind of test: In vitro inhibitory activity against Streptococcus suis. Particulars: FIG. 6B. Format: cell-based.
From the text: as §4

In test [11] the test system is B. bronchiseptica. Put plainly: In vitro bactericidal activity against B. bronchiseptica, plate counts. It counts as cell-based. The method, then:
as §3, §1

The subject of test [12] is E. coli. Kind of test: In vitro inhibitory activity against E. coli. Format: cell-based. To be noted: results not shown. The method, then: as §3, §4
For test [13], the system named is Candida albicans. To be noted: 40 μg/ml; cited from earlier work.

Bridge positions count the residues as written; N and C are the ends. Ends that are not written are not given here.

With “human β-defensin-1: human β-defensin-1, cited from Baneman et al. as without effect on B. pertussis (DHYNCVSSGGQCLYSACPIFTKIQGTCYRGKAKCCK; ends and bridges not checked; cysteine pairing not given here; UniProt P60022 33-68, looked up)”, the “effect on B. pertussis isolates” value in test [1] is on record as “no effect”.

“H-KNIGNSVSCLRNKGVCMPGKCAPKMKQIGTCGMPQVKCCKRK-NH2 (disulfide 9-38, 16-31, 21-39) [pBD-1]”: the salt-dependent bactericidal activity entry in [2], in [6], in test [9] and in test [13] was “has been demonstrated” each time. In addition, the “bactericidal activity in diluted SS medium” value in test [3] (10 μg/ml, 1/10 diluted SS medium in PBS, shorter period of time (FIG. 5B)) was “even stronger bactericidal activity”. For the same substance, the “growth inhibition in comparison with control medium” value in test [3] (20 μg/ml, 6 hours, repeated assay (FIG. 5A)) is on record as “at least 2 logs”. Moreover, in test [3] (40 μg/ml, 18 hours of incubation (FIG. 4)), the “inhibition of B. pertussis growth” value is recorded as “complete inhibition”. The “neutralization of 5-8×10^6 CFU of B. pertussis” value in test [3] (80 μg/ml, 18 hours, repeated assay (FIG. 5A)) is given as “completely neutralized”. For the same substance, the “effect of serum on antimicrobial activity” value in [3] (10-50% rabbit serum added to the medium) is recorded as “did not inhibit”. Further, the “inhibitory effect against B. pertussis, dependence” value in test [3] (20, 40, 80 μg, 6, 18, 30 hr) was “dose and time dependent”. Besides, the “antimicrobial activity against B. pertussis on addition of salt” value in test [3] (addition of salt) is listed as “significantly reduced”. Moreover, the “reduction in bacterial growth compared to untreated control wells” value in test [3] (after 6 hours of incubation, 20-80 μg pBD-1) is given as “about 2 logs”. In addition, the “reduction of bacterial growth” value in test [3] (after 18 hours, depending on the dose used) is on record as “more than 100,000 fold”. Moreover, the “reduction of the bacterial growth” value in [3] (after 30 hours) is 1,000,000 fold. Besides, the “morphological effect on the bacterial cell surface” value in [4] was “substantial morphological damage”. Also, the inhibitory activity entry was “Inhibitory activity was observed” in test [5], “Inhibitory activity was observed” in [10], “Inhibitory activity was observed against all of these organisms except B. bronchiseptica” in test [11] (FIG. 6C) and “Inhibitory activity was observed” in test [12]. For the same substance, the “ultrastructural effect on bacteria” value in test [7] is given as “did not result in major ultrastructural abnormalities or discrete holes”. For the same substance, in test [8] (500 μg into the lung at time of challenge, 5×10^9 CFU B. pertussis), the “protection of infected piglets” value is “complete protection”. The “clinical symptoms (fever, respiratory symptoms)” value in [8] (500 μg into the lung, all treated animals, all controls had fever and respiratory symptoms) was “no clinical symptoms”. In test [8] (500 μg, at 2, 4, 7 and 10 days post infection), the “clinical symptoms and pathological alterations” value is recorded as “total absence”. Also, in test [8] (500 μg, compared with challenged control piglets), the “lesions in the histopathology of lung tissues” value is listed as “either minor or no lesions”. Besides, the “numbers of bacteria in homogenized lung tissues” value in [8] (500 μg, days 2, 4, 7 and 10 post infection, p<0.005 (FIG. 10B)) is given as “significantly lower numbers of bacteria”. Further, the “numbers of isolated bacteria in BALs” value in test [8] (500 μg, days 2, 4 and 7 post infection, p<0.0001 (FIG. 10A)) is “significantly reduced”. The “growth of B. bronchiseptica” value in test [11] (40 μg/ml, 6 and 24 hours (FIG. 7B)) was “unaffected”. The “susceptibility of B. bronchiseptica” value in test [11] (160 μg/ml, up to 48 hours incubation) is “resistant”.

These data come from patent US20060008466A1, “Methods for treating and preventing microbial infections” (University of Saskatchewan, priority 2004, published 2006).
